Assay results reported in US12312359B2 (Vitae Pharmaceuticals, LLC, priority 2016, dated 2025).

How the values were obtained:
[1] = system: human acute monocytic leukemia cell line MV-4-11; assay: Assay 2: cell proliferation assay (ATP quantitation, CellTiter-Glo), MV-4-11; type: cell-based; conditions: MV-4-11 cells
Outline: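 Read-out is CellTiter-Glo luminescence quantifying ATP. Compound exposure lasted 72 h at 37° C., 5% CO2, with 1.67×10^4 MV-4-11 cells per well in 10% FBS medium, alongside HL-60 toxicity-control cells.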

[2] = target: T1, biotinylated wild-type menin and MLL-AF9 fusion protein (menin/MLL binding) (Homo sapiens, UniProt O00255); assay: Assay 1: menin/MLL binding AlphaLISA assay, wild-type menin; conditions: Table 30; column head does not say wild-type or mutated menin
T1 construct: made in house; host or cells: menin: E. coli; MLL-AF9-FLAG: HEK293 cells, used as cleared lysate
T1 sequence (O00255 1-610): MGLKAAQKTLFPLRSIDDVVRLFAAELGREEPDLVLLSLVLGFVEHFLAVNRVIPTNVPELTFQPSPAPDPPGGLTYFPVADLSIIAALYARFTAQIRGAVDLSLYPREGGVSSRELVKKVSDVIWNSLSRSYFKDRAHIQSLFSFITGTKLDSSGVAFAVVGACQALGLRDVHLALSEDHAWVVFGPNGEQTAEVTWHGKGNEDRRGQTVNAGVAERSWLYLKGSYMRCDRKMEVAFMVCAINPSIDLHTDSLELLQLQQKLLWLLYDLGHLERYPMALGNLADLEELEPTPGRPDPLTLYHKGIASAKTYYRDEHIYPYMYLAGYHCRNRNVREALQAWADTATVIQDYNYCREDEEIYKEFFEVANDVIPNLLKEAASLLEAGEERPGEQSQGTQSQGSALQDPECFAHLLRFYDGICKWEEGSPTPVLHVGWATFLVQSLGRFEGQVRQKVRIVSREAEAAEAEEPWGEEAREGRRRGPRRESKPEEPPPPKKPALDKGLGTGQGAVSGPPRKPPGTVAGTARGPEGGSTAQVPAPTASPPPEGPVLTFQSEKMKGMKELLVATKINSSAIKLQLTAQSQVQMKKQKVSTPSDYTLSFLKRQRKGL
Outline: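 Compound was preincubated 30 min at room temperature with biotinylated menin (5 nM) and MLL-AF9-FLAG lysate from HEK293 cells, pH 7.4 buffer with 5% DMSO and DTT. Bead-based Alpha signal after 60 min with streptavidin donor and anti-FLAG acceptor beads; four-parameter logistic fit gave IC50.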

| EC50 ([1]; Homo sapiens, MV4-11, 72 h) [nM] | IC50 [2] [nM] | EC50 ([1]; 72 h) [nM] | SMILES |
| --- | --- | --- | --- |
| 100 to 1000 | < 100 | – | CC(=O)Nc1ccc(CN2CCC3(CCN(c4ncncc4Oc4ccc(F)cc4-c4ccc(C#N)cc4C4CC4)C3)C2)cc1Cl (centres unmarked) [Example 172, N-(2-chloro-4-((7-(5-((4′-cyano-2′-cyclopropyl-5-fluoro-[1,1′-biphenyl]-2-yl)oxy)pyrimidin-4-yl)-2,7-diazaspiro[4.4]nonan-2-yl)methyl)phenyl) acetamide] |
| 100 to 1000 | < 100 | – | CCN(C(=O)C(C)C)c1cc(F)ccc1Oc1cncnc1N1CC2(CCN(CC3CCCCC3)C2)C1 [Example 158, N-(2-((4-(6-(cyclohexylmethyl)-2,6-diazaspiro[3.4]octan-2-yl)pyrimidin-5-yl)oxy)-5-fluorophenyl)-N-ethylisobutyramide] |
| 100 to 1000 | < 100 | – | CC(C)c1ccccc1-c1cc(F)ccc1Oc1cnccc1N1CCC2(CCN(Cc3ccc4[nH]c(=O)[nH]c4c3)C2)C1 (centres unmarked) [Example 249, 5-((7-(3-((5-fluoro-2′-isopropyl-[1,1′-biphenyl]-2-yl)oxy)pyridin-4-yl)-2,7-diazaspiro[4.4]nonan-2-yl)methyl)-1,3-dihydro-2H-benzo[d]imidazol-2-one] |
| 100 to 1000 | < 100 | – | O=c1[nH]c2ccc(CN3CCC4(CCN(c5ncncc5Oc5ccc(F)cc5OCC5CC5)C4)C3)cc2[nH]1 (centres unmarked) [Example 54, 5-((7-(5-(2-(cyclopropylmethoxy)-4-fluorophenoxy)pyrimidin-4-yl)-2,7-diazaspiro[4.4]nonan-2-yl)methyl)-1,3-dihydro-2H-benzo[d]imidazol-2-one] |
| < 100 | < 100 | – | CN(C)C(c1cc(F)ccc1Oc1cncnc1N1CCC2(CCN(Cc3ccc4[nH]c(=O)[nH]c4c3)C2)C1)C1CCCC1 (centres unmarked) [Example 8, 5-((7-(5-(2-(cyclopentyl(dimethylamino)methyl)-4-fluorophenoxy)pyrimidin-4-yl)-2,7-diazaspiro[4.4]nonan-2-yl)methyl)-1,3-dihydro-2H-benzo[d]imidazol-2-one] |
| 100 to 1000 | < 100 | – | CC1(C)C(=O)Nc2cc(CN3CCC4(CCN(c5ncncc5Oc5ccc(F)cc5OCC(F)(F)F)C4)C3)ccc21 (centres unmarked) [Example 182, 6-((7-(5-(4-fluoro-2-(2,2,2-trifluoroethoxy)phenoxy)pyrimidin-4-yl)-2,7-diazaspiro[4.4]nonan-2-yl)methyl)-3,3-dimethylindolin-2-one] |
| 100 to 1000 | < 100 | – | CC(C)N(C(=O)c1cc(F)ccc1Nc1cncnc1N1CCC2(CC1)CN(C[C@H]1CC[C@H](NC(=O)OC(C)(C)C)CC1)C2)C(C)C [Example 241, tert-butyl ((1r,4r)-4-((7-(5-((2-(diisopropylcarbamoyl)-4-fluorophenyl)amino)pyrimidin-4-yl)-2,7-diazaspiro [3.5]nonan-2-yl)methyl)cyclohexyl) carbamate] |
| < 100 | < 100 | – | CC(C)N(C(=O)c1cc(F)ccc1Oc1cncnc1N1CC2(CCN(CC3CCOCC3)C2)C1)C(C)C [Example 111, 5-fluoro-N,N-diisopropyl-2-((4-(6-((tetrahydro-2H-pyran-4-yl)methyl)-2,6-diazaspiro[3.4]octan-2-yl)pyrimidin-5-yl)oxy)benzamide] |
| < 100 | < 100 | – | CCN(C(=O)c1cc(F)ccc1Oc1cncnc1N1CC2(CCN(C[C@H]3CC[C@H](NS(=O)(=O)CC)CC3)CC2)C1)C(C)C [Example 252, N-Ethyl-2-((4-(7-(((1r,4r)-4-(ethylsulfonamido)cyclohexyl)methyl)-2,7-diazaspiro[3.5]nonan-2-yl)pyrimidin-5-yl)oxy)-5-fluoro-N-isopropylbenzamide] |
| < 100 | < 100 | – | CC(C)N(C(=O)c1cc(F)ccc1Oc1cncnc1N1CC2(CC(NC3CCOCC3)C2)C1)C(C)C [Example 239, 5-fluoro-N,N-diisopropyl-2-((4-(6-((tetrahydro-2H-pyran-4-yl)amino)-2-azaspiro[3.3]heptan-2-yl)pyrimidin-5-yl)oxy)benzamide] |
| < 100 | < 100 | – | CCN(C(=O)c1cc(F)ccc1Oc1cncnc1N1CC2(CCN(C[C@H]3CC[C@H](NS(C)(=O)=O)CC3)CC2)C1)C(C)C [Example 238, N-ethyl-5-fluoro-N-isopropyl-2-((4-(7-(((1r,4r)-4-(methylsulfonamido)cyclohexyl)methyl)-2,7-diazaspiro[3.5]nonan-2-yl)pyrimidin-5-yl)oxy)benzamide] |
| 100 to 1000 | < 100 | – | CCN(C(=O)C(C)C)c1cc(F)ccc1Oc1cncnc1N1CC2(CN(CC3CCOCC3)C2)C1 [Example 121, N-ethyl-N-(5-fluoro-2-((4-(6-((tetrahydro-2H-pyran-4-yl)methyl)-2,6-diazaspiro[3.3]heptan-2-yl)pyrimidin-5-yl)oxy)phenyl)isobutyramide] |
| ≥ 1000 | < 100 | – | CC(C)C(O)c1cc(F)ccc1Oc1cncnc1N1CCC2(CCN(Cc3ccc4c(c3)NC(=O)C4(C)C)C2)C1 (centres unmarked) [Example 10, 6-((7-(5-(4-fluoro-2-(1-hydroxy-2-methylpropyl)phenoxy)pyrimidin-4-yl)-2,7-diazaspiro[4.4]nonan-2-yl)methyl)-3,3-dimethylindolin-2-one] |
| 100 to 1000 | < 100 | – | CC(C)N(C(=O)c1cc(F)ccc1Nc1cncnc1N1CCC2(CC1)CN(C1CCC(NS(C)(=O)=O)CC1)C2)C(C)C (single isomer, unassigned) [Example 248A, 5-fluoro-N,N-diisopropyl-2-((4-(2-(4-(methylsulfonamido)cyclohexyl)-2,7-diazaspiro[3.5]nonan-7-yl)pyrimidin-5-yl)amino) benzamide] |
| 100 to 1000 | < 100 | – | CC(C)N(C(=O)c1cc(F)ccc1Oc1cncnc1N1CC2(CCN(C(=O)CCc3ccc(F)cc3)C2)C1)C(C)C [Example 12, 5-fluoro-2-((4-(6-(3-(4-fluorophenyl)propanoyl)-2,6-diazaspiro[3.4]octan-2-yl)pyrimidin-5-yl)oxy)-N,N-diisopropylbenzamide] |
| 100 to 1000 | < 100 | – | CC1CCC(C)N1C(=O)c1cc(F)ccc1Oc1cncnc1N1CCC2(CCN(Cc3ccc4[nH]c(=O)[nH]c4c3)C2)C1 (centres unmarked) [Example 153, 5-((7-(5-(2-(2,5-dimethylpyrrolidine-1-carbonyl)-4-fluorophenoxy)pyrimidin-4-yl)-2,7-diazaspiro[4.4]nonan-2-yl)methyl)-1,3-dihydro-2H-benzo[d]imidazol-2-one] |
| < 100 | < 100 | – | CC(C)C(=O)N(C)c1cc(F)ccc1Oc1cncnc1N1CCC2(CCN(Cc3ccc4[nH]c(=O)[nH]c4c3)C2)C1 (centres unmarked) [Example 76, N-(5-fluoro-2-((4-(7-((2-oxo-2,3-dihydro-1H-benzo[d]imidazol-5-yl)methyl)-2,7-diazaspiro[4.4]nonan-2-yl)pyrimidin-5-yl)oxy)phenyl)-N-methylisobutyramide] |
| 100 to 1000 | < 100 | – | CC(C)c1ccccc1-c1cc(F)c(F)cc1Oc1cncnc1N1CCC2(CCN(Cc3ccc4[nH]c(=O)[nH]c4c3)C2)C1 (centres unmarked) [Example 47, 5-((7-(5-((4,5-difluoro-2′-isopropyl-[1,1′-biphenyl]-2-yl)oxy)pyrimidin-4-yl)-2,7-diazaspiro[4.4]nonan-2-yl)methyl)-1H-benzo[d]imidazol-2(3H)-one] |
| – | < 100 | ≥ 1000 | CC(C)N(C)C(=O)c1cc(F)ccc1Oc1cncnc1N1CCC2(CCN(Cc3ccc(N4CCOC4=O)cc3)C2)C1 (centres unmarked) [Example 142, 5-fluoro-N-isopropyl-N-methyl-2-((4-(7-(4-(2-oxooxazolidin-3-yl)benzyl)-2,7-diazaspiro[4.4]nonan-2-yl)pyrimidin-5-yl)oxy)benzamide] |
| < 100 | < 100 | – | CC(C)C(=O)N(CC(F)(F)F)c1cc(F)ccc1Oc1cncnc1N1CCC2(CCN(Cc3ccc4[nH]c(=O)[nH]c4c3)C2)C1 (centres unmarked) [Example 187, N-(5-fluoro-2-((4-(7-((2-oxo-2,3-dihydro-1H-benzo[d]imidazol-5-yl)methyl)-2,7-diazaspiro[4.4]nonan-2-yl)pyrimidin-5-yl)oxy)phenyl)-N-(2,2,2-trifluoroethyl)iso-butyramide] |
| 100 to 1000 | < 100 | – | CC(C)c1ncncc1-c1cc(F)ccc1Oc1cncnc1N1CC2(CC(NCC34CC(C#N)(C3)C4)C2)C1 [Example 118, 3-(((2-(5-(4-fluoro-2-(4-isopropylpyrimidin-5-yl)phenoxy)pyrimidin-4-yl)-2-azaspiro[3.3]heptan-6-yl)amino)methyl)bi-cyclo[1.1.1]pentane-1-carbonitrile] |
| 100 to 1000 | < 100 | – | CCN(C(=O)C(C)C)c1cc(F)ccc1Oc1cncnc1N1CC2(CCN(C[C@H]3CC[C@H](NC(=O)OC)CC3)CC2)C1 [Example 85, methyl ((1r,4r)-4-((2-(5-(2-(N-ethylisobutyramido)-4-fluorophenoxy)pyrimidin-4-yl)-2,7-diazaspiro[3.5]nonan-7-yl)methyl)cyclohexyl) carbamate] |
